For this test, the target named is T1, HIV integrase (Human immunodeficiency virus type 1 group M subtype B, UniProt P04585).
T1 construct: stored proteins (integrase, wt, 49 μM in)
Nature of the test: 3dQ assay: HIV integrase 3′-end processing fluorescence in vitro assay. In kind it is biochemical. Particulars: dose response, FIG. 1.

T1 sequence (O75475 whole entry, other chains not shown): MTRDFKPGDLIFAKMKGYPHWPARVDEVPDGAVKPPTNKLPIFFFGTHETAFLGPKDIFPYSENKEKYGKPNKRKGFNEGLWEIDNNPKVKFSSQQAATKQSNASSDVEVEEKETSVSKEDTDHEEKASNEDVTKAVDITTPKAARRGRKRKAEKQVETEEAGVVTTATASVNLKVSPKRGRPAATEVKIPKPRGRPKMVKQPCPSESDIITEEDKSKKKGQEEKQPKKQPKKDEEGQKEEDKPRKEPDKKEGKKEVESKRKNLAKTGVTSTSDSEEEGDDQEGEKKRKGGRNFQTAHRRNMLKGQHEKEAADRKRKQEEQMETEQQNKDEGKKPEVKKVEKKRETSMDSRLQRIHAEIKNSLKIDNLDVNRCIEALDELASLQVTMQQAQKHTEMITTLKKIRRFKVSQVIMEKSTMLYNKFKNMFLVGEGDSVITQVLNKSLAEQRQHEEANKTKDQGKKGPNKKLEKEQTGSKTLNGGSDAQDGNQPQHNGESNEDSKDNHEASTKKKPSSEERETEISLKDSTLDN

For `O=C(O)C(=O)CC(=O)c1cccn1Cc1ccc(F)cc1` [L731,988], the “inhibition of 3′-end processing (result in words)” value is listed as “only showed a weak response”.

The values above are taken from patent US20100261751A1, “METHOD FOR D[…] OF THE TWO HUMAN IMMUNODEFICIENCY VIRUS (HIV) INTEGRASE ENZYMATIC […]” (priority 2007, published 2010).
